Results: US20230364039A1, “Methods of Managing Side Effects of a Vasopressin Receptor Antagonist Therapy” (Emory University, priority 2020, published 2023)
Read-outs that look alike come from different tables or passages of the source.

Tests used:
[1] = Hypoglycemia liability of AMPK activators; assay type: in vivo; settings: preliminary data
tolvaptan treated rats = experiment: Urine osmolality / urine concentrating ability in tolvaptan treated rats; assay type: in vivo; settings: FIG. 1; for urine osmolality: rats on tolvaptan 10 mg/kg/day by gavage, AMPK activator 2.5, 5 and 10 mg/kg/day up to 14 days, vs tolvaptan only
Procedure: Tolvaptan (10 mg/kg/day) was delivered by gavage feeding daily. AMPK activator was given at 2.5, 5 and 10 mg/kg/day for up to 14 total days, with daily urine collection for osmolality determination. Light bars: Osmolality in rats receiving tolvaptan only. Black bars: treated rats. Mean±s.e., n=4-5 for lower doses, 8-10 for 10 mg/kg/day, *=p<0.05.

[2] = test system: adenosine monophosphate activated protein kinase (AMPK); experiment: AMPK activator potency and specificity (preliminary data)
[3] = test system: vasopressin type 2 receptor knockout mouse model; experiment: Urine concentrating ability in vasopressin type 2 receptor knockout mouse model; assay type: in vivo
[4] = general statement on some AMPK activators; cited from earlier work
[5] = test system: rodents with nephrogenic diabetes insipidus; settings: Efe et al., JCI Insight 2016; cited from earlier work
[6] = test system: autosomal dominant polycystic kidney disease (ADPKD); settings: cited from earlier work

Structure (SMILES): NC(=O)C1(CCCCCCCCCCCCC2(C(N)=O)CC2)CC1 [NP-5033, 1,1′-(dodecane-1,12-diyl)bis(cyclopropane-1-carboxamide)]
- hypoglycemia [1]: does not cause hypoglycemia
- urine osmolality (tolvaptan treated rats): increases urine osmolality
- urine osmolality (tolvaptan treated rats; listed as AMPK activator): urine osmolality increases
- urine concentrating ability (tolvaptan treated rats; tolvaptan treated rats): improvement in urine concentrating ability
- potency and specificity as AMPK activator [2]: potent, specific
- urine concentrating ability [3]: improvement in urine concentrating ability

Structure (SMILES): CN(C)C(=N)N=C(N)N [metformin]
- hypoglycemia [4]: risk of developing hypoglycemia
- urine concentration [5]: improves urine concentration

Structure (SMILES): Cc1ccccc1C(=O)Nc1ccc(C(=O)N2CCCC(O)c3cc(Cl)ccc32)c(C)c1 (stereo not shown) [tolvaptan, N-(4-(7-chloro-5-hydroxy-2,3,4,5-tetrahydro-1H-benzo[b]azepine-1-carbonyl)-3-methylphenyl)-2-methylbenzamide]
- progression of renal cyst development ([6]; ADPKD): slows the progression of renal cyst development
- side effect: urine volume ([6]; tolvaptan treatment, polyuria defined as greater than 2.5 L or 3 L over 24 hours in adults): overt polyuria
